Measurements: patent US12478623B2 (INTRA-CELLULAR THERAPIES, INC., priority 2019, dated 2025)

Columns and labels:
Male Wistar rats = experiment: Conditioned avoidance response (CAR) test, Example 1; assay type: in vivo, rat; conditions: for Suppression of CAR: 20 minutes; for Treatment effect in CAR: FIG. 2
[1] = tested on: pyramidal cells in rat mPFC slices; conditions: lumateperone alone; cited from earlier work
social defeat model = conditions: in vivo; cited from earlier work
[2] = tested on: mTOR pathway, including protein kinase Akt and p70S6 kinase; conditions: cited from earlier work
[3] = tested on: patients with acute exacerbated schizophrenia; conditions: 60 mg P.O. once daily for up to 28 days, vs placebo; cited from earlier work
schizophrenic patients = conditions: cited from earlier work
[4] = schizophrenia with co-morbid depression

| Structure (SMILES) | Suppression of CAR (Male Wistar rats; lumateperone 7 mg/kg i.p. (saline), vs vehicle/saline, FIG. 3) | CAR, comparison between groups (Male Wistar rats; lumateperone 7 mg/kg, 90 minutes, vs lumateperone 3 mg/kg/saline, FIG. 4) | Suppression of CAR (Male Wistar rats; lumateperone tosylate 3 mg/kg i.p., vs vehicle, FIG. 1) | Suppression of CAR (Male Wistar rats; lumateperone tosylate 10 mg/kg i.p., vs vehicle, FIG. 1) | Treatment effect in CAR (Male Wistar rats; lumateperone tosylate 10 mg/kg i.p., 90 minutes) | NMDA and AMPA receptor-induced currents [1] | Effect in the social defeat model (social defeat model) | Phosphorylation of mTOR pathway proteins [2] | Symptoms of emotional experience [3] | Depressive symptoms (schizophrenic patients; [4]) | Safety profile (schizophrenic patients; [4]) | Social functioning, positive and negative symptoms, cognition (schizophrenic patients; schizophrenic patients, at a low striatal D2 receptor occupancy) | Suppression of CAR (Male Wistar rats; risperidone 0.4 mg/kg i.p., vs vehicle, FIG. 1) | Treatment effect in CAR (Male Wistar rats; risperidone 0.4 mg/kg i.p., 90 minutes) |
| --- | --- | --- | --- | --- | --- | --- | --- | --- | --- | --- | --- | --- | --- | --- |
| CN1CCN2c3c(cccc31)[C@@H]1CN(CCCC(=O)c3ccc(F)cc3)CC[C@@H]12 [lumateperone, 4-((6bR,10aS)-3-methyl-2,3,6b,9,10,10a-hexahydro-1H-pyrido[3′,4′: 4,5]pyrrolo[1,2,3-de]quinoxalin-8(7H)-yl)-1-(4-fluorophenyl)-1-butanone] | significantly suppressed CAR compared to vehicle/saline | significantly different than lumateperone (3 mg/kg)/saline | significantly suppressed CAR compared to vehicle | significantly suppressed CAR compared to vehicle | significant treatment effect | activates both NMDA and AMPA receptor-induced currents | antidepressant-like effects | increases phosphorylation of key proteins in the mTOR pathway | significant and unexpected improvement in symptoms of emotional experience compared to placebo | improves the depressive symptoms | placebo-level safety profile and no metabolic changes or extra-pyramidal side effects | significantly improve social functioning, positive and negative symptoms, as well as impaired cognition | – | – |
| Cc1nc2n(c(=O)c1CCN1CCC(c3noc4cc(F)ccc34)CC1)CCCC2 [risperidone] | – | – | – | – | – | – | – | – | – | – | – | – | significantly suppressed CAR compared to vehicle | not for the other doses or for risperidone |
